Legend:
Format in all cases: in vivo
[1] = system: Erysiphe graminis f. sp. tritici; assay: Test E: preventive spray on wheat seedlings, Erysiphe graminis f. sp. tritici (wheat powdery mildew), visual disease rating; details: 100 = 100% disease control, 0 = no control, unmarked values
From the text: (§1) General protocol for preparing test suspensions for Tests A-E: the test compounds were first dissolved in acetone in an amount equal to 3% of the final volume and then suspended at the desired concentration (in ppm) in acetone and purified water (50/50 mix by volume) containing 250 ppm of the surfactant Trem® 014 (polyhydric alcohol esters). The resulting test suspensions were then used in Tests A-E. Compounds were sprayed with either a 40 ppm or 10 ppm (*) test suspension to the point of run-off on the test plants which is the equivalent of a rate of 160 g ai/ha or 40 g ai/ha, respectively.
The test suspension was sprayed to the point of run-off on wheat seedlings. The following day the seedlings were inoculated with a spore dust of Erysiphe graminis f. sp. tritici, (the causal agent of wheat powdery mildew) and incubated in a growth chamber at 20° C. for 8 days, after which time visual disease ratings were made.
(§2) Results for Tests A-E are given in Table A. In the Table, a rating of 100 indicates 100% disease control and a rating of 0 indicates no disease control (relative to the controls). A dash (-) indicates no test results.

Septoria tritici = assay: Test C: preventive spray on wheat seedlings, Septoria tritici (wheat leaf blotch), visual disease rating; details: 100 = 100% disease control, 0 = no control, unmarked values
From the text: as §1
(§3) The test suspension was sprayed to the point of run-off on wheat seedlings. The following day the seedlings were inoculated with a spore suspension of Septoria tritici (the causal agent of wheat leaf blotch) and incubated in a saturated atmosphere at 24° C. for 48 h, and then moved to a growth chamber at 20° C. for 21 days, after which time visual disease ratings were made.
as §2

[2] = system: Puccinia recondite f. sp. tritici; assay: Test D: preventive spray on wheat seedlings, Puccinia recondite f. sp. tritici (wheat leaf rust), visual disease rating; details: 100 = 100% disease control, 0 = no control, unmarked values
From the text: as §1
as §3, with “Puccinia recondite f. sp. tritici;” for “Septoria tritici”, “rust)” for “blotch)”, “20°” for “24°”, “24” for “48”, “6” for “21”
as §2

Botrytis cinerea = assay: Test A: preventive spray on tomato seedlings, Botrytis cinerea (gray mold), visual disease rating; details: 100 = 100% disease control, 0 = no control relative to controls, unmarked values
From the text: as §1
The test suspension was sprayed to the point of run-off on tomato seedlings. The following day the seedlings were inoculated with a spore suspension of Botrytis cinerea (the causal agent of gray mold on many crops) and incubated in a saturated atmosphere at 20° C. for 48 h, and moved to a growth chamber at 27° C. for 2 days, after which time visual disease ratings were made.
as §2

[3] = system: Stagonospora nodorum (also known as Septoria nodorum); assay: Test B: preventive spray on wheat seedlings, Stagonospora nodorum (wheat glume blotch), visual disease rating; details: 100 = 100% disease control, 0 = no control, unmarked values
From the text: as §1
The test suspension was sprayed to the point of run-off on wheat seedlings. The following day the seedlings were inoculated with a spore suspension of Stagonospora nodorum (also known as Septoria nodorum; the causal agent of wheat glume blotch) and incubated in a saturated atmosphere at 20° C. for 48 h, and then moved to a growth chamber at 20° C. for 6 days, after which time visual disease ratings were made.
as §2

Compound	Test E disease control rating [1]	Test C disease control rating (Septoria tritici)	Test D disease control rating [2]	Test A disease control rating (Botrytis cinerea)	Test B disease control rating [3]
O=C(Nc1ccccc1-c1ccc(-n2cc(-c3ccccc3F)cn2)nc1)c1ncccc1C(F)(F)F [compound 29]	82%	100%	89%	77%	99%
COc1cc(C(F)(F)F)nn1-c1ccc(-c2ccccc2NC(=O)c2ncccc2C(F)(F)F)cn1 [compound 48]	56%	73%	0%	0%	0%
O=C(Nc1ccccc1-c1cnc(-n2cc(Cl)cn2)c(Cl)c1)c1ccccc1C(F)(F)F [compound 60]	99%	100%	100%	34%	0%
COc1ccc(-c2ccn(-c3ccc(-c4ccccc4NC(=O)c4cn(C)nc4C(F)F)cn3)n2)cc1 [compound 88]	93%	51%	100%	100%	0%
Cn1cc(C(=O)Nc2ccccc2-c2cnc(-n3ccc(Br)n3)c(F)c2)c(C(F)F)n1 [compound 75]	100%	100%	100%	99%	98%
O=C(Nc1ccccc1-c1ccc(-n2ccc(Br)n2)nc1)c1ncccc1C(F)(F)F [compound 13]	99%	100%	100%	98%	98%
O=C(Nc1ccccc1-c1cnc(-n2ccc(-c3ccccc3)n2)c(F)c1)c1ncccc1C(F)(F)F [compound 72]	91%	100%	97%	92%	0%
COc1cccc(C2CC(c3ccc(-c4ccccc4NC(=O)c4ncccc4C(F)(F)F)cn3)=NO2)c1 (racemic) [compound 18]	0%	100%	99%	96%	100%
COc1ccc(-c2ccn(-c3ccc(-c4ccccc4NC(=O)c4cn(C)nc4C(F)F)cn3)n2)c(OC)c1 [compound 100]	69%	87%	100%	58%	60%
O=C(Nc1ccccc1-c1ccc(-n2cc(-c3cccc(F)c3)cn2)nc1)c1ncccc1C(F)(F)F [compound 27]	96%	100%	98%	89%	99%
Cn1cc(C(=O)Nc2ccccc2-c2ccc(-n3ccc(-c4cccc(F)c4)n3)nc2)c(C(F)F)n1 [compound 87]	64%	97%	100%	99%	0%
O=C(Nc1ccccc1-c1cnc(-n2ccc(Cl)n2)c(F)c1)c1ccccc1C(F)(F)F [compound 77]	98%	100%	100%	74%	0%
3-(trifluoromethyl)-N-[2-[6-[3-(trifluoromethyl)-1H-pyrazol-1-yl]-3-pyridazinyl]phenyl]-2-pyridinecarboxamide [Compound 59]	99%	100%	100%	100%	100%
O=C(Nc1ccccc1-c1ccc(-n2cc(Br)cn2)nc1)c1ncccc1Cl [compound 47]	0%	82%	100%	91%	0%
Cn1cc(C(=O)Nc2ccccc2-c2cnc(-n3ccc(Cl)n3)c(F)c2)c(C(F)F)n1 [compound 73]	100%	100%	100%	96%	100%
Cc1cc(-c2ccccc2NC(=O)c2cn(C)nc2C(F)F)cnc1-n1ccc(C(F)(F)F)n1 [compound 38]	100%	100%	100%	90%	100%
O=C(Nc1ccccc1-c1ccc(-n2ccc(C(F)(F)F)n2)nc1)c1nccnc1C(F)(F)F [compound 24]	100%	100%	100%	99%	100%
O=C(Nc1ccccc1-c1ccc(-n2cc(-c3cc(F)cc(F)c3)cn2)nc1)c1ncccc1C(F)(F)F [compound 28]	96%	100%	99%	99%	99%
COc1cccc(-c2cnn(-c3ccc(-c4ccccc4NC(=O)c4cn(C)nc4C(F)F)cn3)c2)c1 [compound 9]	100%	100%	100%	100%	100%
Cn1cc(C(=O)Nc2ccccc2-c2ccc(-n3cc(-c4ccccc4F)cn3)nc2)c(C(F)F)n1 [compound 7]	97%	100%	100%	100%	100%
Cc1cc(-c2ccccc2NC(=O)c2ccccc2C(F)(F)F)cnc1-n1cc(Cl)cn1 [compound 63]	72%	92%	99%	27%	0%
O=C(Nc1ccccc1-c1cnc(-n2ccc(Cl)n2)c(F)c1)c1ncccc1C(F)(F)F [compound 69]	100%	100%	100%	99%	100%
Cn1cc(C(=O)Nc2ccccc2-c2cnc(-n3ccc(C(F)(F)F)n3)c(Cl)c2)c(C(F)(F)F)n1 [compound 97]	99%	–	100%	0%	87%
O=C(Nc1ccccc1-c1cnc(-n2ccc(C(F)(F)F)n2)c(Cl)c1)c1nccnc1Cl [compound 96]	96%	–	99%	0%	60%
COc1cc(OC)cc(-c2ccn(-c3ccc(-c4ccccc4NC(=O)c4cn(C)nc4C(F)F)cn3)n2)c1 [compound 91]	56%	–	100%	87%	33%
Cc1ccsc1C(=O)Nc1ccccc1-c1cnc(-n2ccc(C(F)(F)F)n2)c(Cl)c1 [compound 95]	98%	–	100%	0%	100%
Cc1nc(C(F)(F)F)c(C(=O)Nc2ccccc2-c2ccc(-n3ccc(C(F)(F)F)n3)nc2)s1 [compound 92]	98%	–	100%	0%	60%
Cn1cc(C(=O)Nc2ccccc2-c2ccc(-n3ccc(C(F)(F)F)n3)nc2)c(C(F)(F)F)n1 [compound 94]	99%	–	100%	0%	98%

From patent US9730447B2, “Fungicidal amides” (E I DU PONT DE NEMOURS AND COMPANY, priority 2013, dated 2017)
